# What was measured:
# [1] = Rat in vivo evaluation of toxicity (serum ALT and AST); details: RDV (LNP) with ApoB siRNA, tail vein, Sprague-Dawley female rats, 24 hours after dosing; compared with RDV containing DLinKC2DMA (Compound 12)
# Description: (§1) Six hours post dose, food is removed from the cages. Animal necropsy is performed 24 hours after LNP dosing. Rats are anesthetized under isoflurane for 5 minutes, then maintained under anesthesia by placing them in nose cones continuing the delivery of isoflurane until ex-sanguination is completed. Blood is collected from the vena cava using a 23 gauge butterfly venipuncture set and aliquoted to serum separator vacutainers for serum chemistry analysis. Punches of the excised caudate liver lobe are taken and placed in RNALater (Ambion) for mRNA analysis. Preserved liver tissue was homogenized and total RNA isolated using a Qiagen bead mill and the Qiagen miRNA-Easy RNA isolation kit following the manufacturer's instructions. Liver ApoB mRNA levels were determined by quantitative RT-PCR. Message was amplified from purified RNA utilizing a rat ApoB commercial probe set (Applied Biosystems Cat #RN01499054_m1). The PCR reaction was performed on an ABI 7500 instrument with a 96-well Fast Block. The ApoB mRNA level is normalized to the housekeeping PPIB (NM 011149) mRNA. PPIB mRNA levels were determined by RT-PCR using a commercial probe set (Applied Biosytems Cat. No. Mm00478295_m1). Results are expressed as a ratio of ApoB mRNA/PPIB mRNA. All mRNA data is expressed relative to the PBS control dose. […]
# [2] = Determination of cationic lipid levels in rat liver (LC/MS-MS); format: in vivo; details: rats dosed with RDV, 0.5 mg/kg; compared with RDV containing DLinKC2DMA (Compound 12) or MC3 (Compound 13), also 0.5 mg/kg
# Description: Liver tissue was weighed into 20-ml vials and homogenized in 9 v/w of water using a GenoGrinder 2000 (OPS Diagnostics, 1600 strokes/min, 5 min). A 50 μL aliquot of each tissue homogenate was mixed with 300 μL of extraction/protein precipitating solvent (50/50 acetonitrile/methanol containing 500 nM internal standard) and the plate was centrifuged to sediment precipitated protein. A volume of 200 μL of each supernatant was then transferred to separate wells of a 96-well plate and 10 μl samples were directly analyzed by LC/MS-MS.
# Standards were prepared by spiking known amounts of a methanol stock solution of compound into untreated rat liver homogenate (9 vol water/weight liver). Aliquots (50 μL) each standard/liver homogenate was mixed with 300 μL of extraction/protein precipitating solvent (50/50 acetonitrile/methanol containing 500 nM internal standard) and the plate was centrifuged to sediment precipitated protein. A volume of 200 μL of each supernatant was transferred to separate wells of a 96-well plate and 10 μl of each standard was directly analyzed by LC/MS-MS.
# Absolute quantification versus standards prepared and extracted from liver homogenate was performed using an Aria LX-2 HPLC system (Thermo Scientific) coupled to an API 4000 triple quadrupole mass spectrometer (Applied Biosystems). […]
# [3] = system: mRNA transcript for the ApoB gene; assay: Rat in vivo evaluation of efficacy (ApoB siRNA LNP, liver ApoB mRNA by RT-PCR); details: RDV (LNP) with ApoB siRNA, tail vein, Sprague-Dawley female rats, 24 hours after dosing; compared with RDV containing DLinKC2DMA (Compound 12)
# Description: as §1
# [4] = system: mRNA transcript for the firefly (Photinus pyralis) luciferase gene; assay: Mouse in vivo evaluation of efficacy (luciferase siRNA LNP, liver luminescence); details: RDV (LNP) with Luc siRNA, tail vein, 0.1 to 0.5 mg/kg siRNA, imaged 48 hours post dose; compared with RDV containing Compound A
# Description: LNPs utilizing Compound 4, in the nominal compositions described immediately above, were evaluated for in vivo efficacy. The siRNA targets the mRNA transcript for the firefly (Photinus pyralis) luciferase gene (Accession #M15077). […] The in vivo luciferase model employs a transgenic mouse in which the firefly luciferase coding sequence is present in all cells. ROSA26-LoxP-Stop-LoxP-Luc (LSL-Luc) transgenic mice licensed from the Dana Farber Cancer Institute are induced to express the Luciferase gene by first removing the LSL sequence with a recombinant Ad-Cre virus (Vector Biolabs). Due to the organo-tropic nature of the virus, expression is limited to the liver when delivered via tail vein injection. Luciferase expression levels in liver are quantitated by measuring light output, using an IVIS imager (Xenogen) following administration of the luciferin substrate (Caliper Life Sciences). Pre-dose luminescence levels are measured prior to administration of the RDVs. Luciferin in PBS (15 mg/mL) is intraperitoneally (IP) injected in a volume of 150 μL. After a four minute incubation period mice are anesthetized with isoflurane and placed in the IVIS imager. The RDVs (containing siRNA) in PBS vehicle were tail vein injected n a volume of 0.2 mL. […] In vivo efficacy results are expressed as % inhibition of luminescence relative to pre-dose luminescence levels. […]
smiles,measurement,setting,value
"CCCCC/C=C\C/C=C\CCCCCCCCO[C@@H]1CN(C)C[C@H]1OCCCCCCCC (relative stereo) [Compound 4, trans-1-Methyl-3-[((9Z,12Z)-octadeca-9,12-dienyl)oxy]-4-octyloxy-pyrrolidine]",tolerability (increases in serum alanine amino transferase and aspartate amino transferase),[1],significantly improved tolerability
same,cationic lipid levels in rat liver,[2],much lower
same,in vivo efficacy (liver ApoB mRNA/PPIB mRNA relative to PBS control),[3],Modestly decreased efficacy
same,in vivo efficacy (% inhibition of luminescence relative to pre-dose luminescence levels),[4],Greater efficacy

# Reference: patent US10337014B2, “Low molecular weight cyclic amine containing cationic lipids for oligonucleotide delivery” (SIRNA THERAPEUTICS, INC., priority 2010, dated 2019)
